Where “and” joins values, the source holds several entries; their conditions need not be identical. Identical values can stand only once. Entries after “also recorded” stand apart in the source; their conditions may differ.
Assays:
NB4 cells [1] = test: NB4 growth, cell cycle and Annexin V; type: cell-based, human; conditions: sodium stibogluconate 250 μg/ml or ATRA 1 μM, 3 days
Experimental: The NB4 cell line (Lanotte et al., Blood 77, 1080 (1991)) was a gift from Dr. Dan Lindner of the Cleveland Clinic Foundation. […] and U937 cell lines were purchased from American Type Culture Collection (Rockville, Md.). These human […] cell lines were maintained in RPMI 1640 medium supplemented with 10% fetal calf serum (FCS). For cell proliferation assays, cells were cultured at 37° C. in 10% FCS medium containing various amounts of sodium stibogluconate for 6 days. The cell numbers in the cultures were determined by an MTT assay as described previously in Mosmann, J. Immunol. Methods 65, 55 (1983).
The cell cycle was analyzed by flow cytometry after 3 days of culture of NB4 cells in the absence or presence of sodium stibogluconate (250 μg/ml) or ATRA (1 μM). Briefly, the cells were fixed in cold ethanol and incubated for 30 minutes at 4° C. in the dark with a solution of […] propidium iodide, 1 mg/ml RNase and 0.1% NP-40. Analysis was performed immediately after staining using the CELLFIT program (Becton Dickinson, Mountain View, Calif.).
Annexin V staining of exposed membrane phospholipid phosphatidylserine (PS) was done using the Annexin V assay kit (Pharmingen, San Diego, Calif.). Briefly, NB4 cells were cultured in the 10% FCS RPMI 1640 medium in the absence or presence of sodium stibogluconate (250 μg/ml) or ATRA (1 μM) for 3 days. Cells were then washed in PBS twice and stained in binding buffer (10 mM Hepes, pH 7.4; 140 mM NaCl; 2.5 mM CaCl2) containing Annexin V-FITC and propidium iodide for 15 min. The reaction was stopped by adding 10 volumes of binding buffer and analyzed by FACS (Becton Dickinson Facsvantage).

HL-60 cells = test: HL-60 differentiation (NBT reduction); type: cell-based, human; conditions: day 6
Experimental: (§1) Differentiation of AML cell lines was assessed by their ability to produce superoxide as measured by reduction of NBT to formazan and by analysis of expression of CD11b surface marker by flow cytometry. For NBT reduction, each cell suspension was mixed with an equal volume of solution containing 1 mg/ml of NBT (Sigma) and 2.5 μg/ml of TPA for 30 minutes at 37° C. After incubation, cells containing the purple formazan deposits and cells devoid of NBT-reducing activity (white cells) in each sample were determined by counting 200 cells under microscope. Data is expressed as a percentage based on the following ratio: purple cells/purple+white cells. For analysis of cell surface antigens, cells were exposed to phycoerythrin (PE)-conjugated murine anti-human CD11b (DAKO Corp., Carpinteria, Calif.). Analysis of fluorescence was performed on a FACScan flow cytometer (Beckton Dickinson, Mountain View, Calif.).

NB4 cells [2] = test: NB4 differentiation (NBT reduction, CD11b); type: cell-based, human
Experimental: as §1

U937 cells = test: U937 differentiation (NBT reduction); type: cell-based, human; conditions: day 6
Experimental: as §1

SHP-1 = molecular target: T1, SHP-1 (Mus musculus, UniProt P29351); test: in vitro PTPase assay, GST/SHP-1; type: biochemical; conditions: 1-1,000 μg/ml
T1 construct: made in house
Experimental: In vitro PTPase activities were measured using the commercial protein tyrosine phosphatase assay kit (Upstate Biotechnology, Inc. (“UBI”)) following established procedure known to one of skill in the art. […] Briefly, 0.01 μg of GST/PTPase fusion proteins was incubated in 50 μl of Tris buffer (10 mM Tris, pH 7.4) containing different concentrations of inhibitors or chemicals (0-1,000 μg/ml) at 22° C. for 10 minutes, followed by addition of 0.2 mM of the phosphotyrosine peptide and incubation at 22° […] 100 μl of Malachite Green solution was added and incubated for 5 minutes, and the absorbance at 660 nm was measured after 5 minutes.
To assess the reversibility of inhibition of SHP-1 by PTPase inhibitors, GST/SHP-1 fusion protein bound on glutathione beads were pre-incubated in cold Tris buffer or Tris buffer containing the PTPase inhibitors at 4° C. for 30 minutes. The beads were then either subjected to in vitro PTPase assays or washed 3 times in Tris buffer then subjected to in vitro PTPase assays.
Briefly, individual PTPases (0.1 μg/reaction) in 50 μL of PTPase buffer (50 mM Tris, pH 7.4) were incubated at 22° C. for 10 minutes or as indicated in the absence or presence of inhibitory compounds. Substrates (0.2 mM phosphotyrosine peptide) were then added and allowed to react at 22° C. for 18 hrs. PTPase activity of individual reactions was measured by adding 100 μL of malachite green solution (UBI) and then quantifying the amounts of free phosphate cleaved by the PTPase from the peptide substrate by spectrometry (OD660 nm). […] Relative PTPase activities were calculated based on the formula: (PTPase activity in the presence of an inhibitory compound/PTPase activity in the absence of the compound)× 100%. To assess the reversibility of PTPase inhibition, GST fusion proteins of the PTPases bound on glutathione beads (Pharmacia) were pre-incubated with cold Tris buffer (50 mM Tris, pH 7.0) or Tris buffer containing the inhibitor at 4° C. for 30 minutes. The beads were then washed three times in cold Tris buffer or not washed prior to subjecting to in vitro PTPase assays.

[3] = test system: Jak2/Stat5 tyrosine phosphorylation in Baf3 cells; test: cellular protein tyrosine phosphorylation in Baf3 cells, Western blotting; type: cell-based, murine
Experimental: For induction of cellular protein phosphorylation by sodium stibogluconate or pervanadate, Baf3 cells were incubated in 0.1% FCS-RPMI 1640 medium at 37° C. for 16 hours. The cells were then washed twice in RPMI 1640 medium and incubated with sodium stibogluconate or pervanandate (0.1 mM) for various times prior to termination by lysing cells in cold lysis buffer (50 mM Tris, pH 7.4; 150 mM NaCl; 0.2 mM Na3VO4; 20 mm NaF; 1% Nonidet P-40; 2 mM PMSF; 20 μg/ml of Aprotinin and 1 mM of sodium molybdic acid). To determine the effect of sodium stibogluconate or potassium antimonyl tartrate on IL-3-induced Jak/Stat phosphorylation, Baf3 cells were deprived of the growth factor for 16 hours in 0.1% FCS RPMI 1640 medium and then incubated with or without sodium stibogluconate or potassium antimonyl tartrate for 10 minutes. IL-3 was next added to the cell suspension and incubated for various times. The Cells were then harvested and lysed in cold lysis buffer at 4° C. for 45 minutes. Total cell lysates (TCL) were separated in SDS-PAGE gels, blotted onto nitrocellulose membrane (Schleicher & Schuell), probed with specific antibodies and detected using an enhanced chemiluminescence kit (ECL, Amersham, Arlington Heights, Ill.).

PTP1B = molecular target: T2, PTP1B (Homo sapiens, UniProt P18031); test: in vitro PTPase assay, GST/PTP1B; type: biochemical; conditions: 1-1,000 μg/ml
T2 construct: purchased Upstate Biotechnology Inc. (Lake Placid, N.Y.)
Experimental: In vitro PTPase activities were measured using the commercial protein tyrosine phosphatase assay kit (Upstate Biotechnology, Inc. (“UBI”)) following established procedure known to one of skill in the art. This assay measures the in vitro dephosphorylation of a synthetic phosphotyrosine peptide of the sequence Arg-Arg-Leu-Ile-Glu-Asp-Ala-Gle-T- -yr-Ala-Ala-Arg-Gly, wherein the tyrosine is phosphorylated (SEQ ID NO: 3). Briefly, 0.01 μg of GST/PTPase fusion proteins was incubated in 50 μl of Tris buffer (10 mM Tris, pH 7.4) containing different concentrations of inhibitors or chemicals (0-1,000 μg/ml) at 22° C. for 10 minutes, followed by addition of 0.2 mM of the phosphotyrosine peptide and incubation at 22° C. for 18 hours. 100 μl of Malachite Green solution was added and incubated for 5 minutes, and the absorbance at 660 nm was measured after 5 minutes.
In vitro PTPase assays were used to determine the effects of levamisole (Sigma), pentamidine (American Pharmaceutical Partners, Inc.), and ketoconazole (Sigma) on recombinant PTPases, following established procedures (Pathak et al., J. Immunol. 167, 3391 (2001); Pathak et al., Leukemia 16, 2285 (2002), Yi et al., J. Immunol. 169, 5978 (2002)) using a synthetic phosphotyrosine peptide or DiFMUP as the substrate as detailed above in section I.A.2.

Baf3 cells = test: Baf3 cell proliferation assay; type: cell-based, murine
Experimental: The murine hematopoietic cell line Baf3 was maintained in RPMI 1640 medium supplemented with 10% fetal calf serum (FCS) and murine IL-3 (20 units/ml) as described previously in Damen et al., J. Biol. Chem. 270, 23402 (1995). Human myeloid cell line TF-1 was maintained in RPMI 1640 supplemented with 10% FCS and 40 ng/ml of recombinant human GM-CSF as described previously in Thomassen et al., Clin. Immunol. 95, 85 (2000). For cell proliferation assays, cells were washed in 10% FCS medium twice, resuspended in 10% FCS medium, incubated at 37° C. for 16 hours, and then cultured at 37° C. in 10% FCS medium containing various amounts of cytokines, sodium stibogluconate, or potassium antimonyl tartrate for 3-6 days as indicated. The cell numbers in proliferation assays were determined by an MTT assay or by microscopic cell counting as indicated.

[4] = test system: tumor-infiltrating and spleen immune cells (F4/80+, CD4+, CD8+); test: immunohistochemistry of Renca tumors and spleen; type: in vivo, Balb/c mice; conditions: Renca tumors, end of treatment
Experimental: Major internal organs and Renca tumors harvested from mice were fixed in 10% formalin or snap frozen in liquid nitrogen. H & E-stained tissue sections of the fixed samples were prepared and evaluated by microscopy as described previously (Yi, T., M. K. Pathak, D. J. Lindner, M. E. Ketterer, C. Farver, and E. C. Borden. 2002. Anticancer activity of sodium stibogluconate in synergy with IFNs. J Immunol 169:5978). Preparation of frozen tissue sections and immunohistochemistry were performed following established procedures (Joliat, M. J., P. A. Lang, B. L. Lyons, L. Burzenski, M. A. Lynes, T. Yi, J. P. Sundberg, and L. D. Shultz. 2002. Absence of CD5 dramatically reduces progression of pulmonary inflammatory lesions in SHP-1 protein-tyrosine phosphatase-deficient ‘viable motheaten’ mice. J Autoimmun 18:105). The antibodies used for immunohistochemistry were anti-CD4 (rat mAb, clone GK1.5, BD Biosciences, Franklin Lakes, N.J.), anti-CD8 (rat mAb, clone 53-6.7.5, BD Biosciences, Franklin Lakes, N.J.), anti-F4/80 (rat mAb, clone A3-1, Serotec, Oxford, UK) and anti-Asialo GM1 (rabbit polyclonal, Cedarlane, Hornby, Canada). […] Tissue sections of 2 mice/group were evaluated. The number of immune cells was semi-quantified based on the following scheme: […], 0-1 positive cells/40×field; +, 2-5 positive cells/40×field; ++, 6-10 positive cells/40×field, etc.

Renca tumors = Renca tumors in Balb/c mice; type: in vivo; conditions: two weeks; SSG 12 mg/daily i.m., i.p.
Experimental: Balb/c and athymic nude Balb/c mice (10 weeks old, female, Taconic Farms, Germantown, N.Y.) were inoculated (s.c.) at the flanks with Renca cells (10^6 cells/site). Four days post-inoculation, the mice were subject to no treatment (Control) or treatment with IL-2 ([…]/daily for 5 days, i.p.), SSG (12 mg/daily, i.m. at hip regions) or the combination of the two agents for two weeks. […] The dose of SSG was similar to the effective daily dose of the drug for the treatment of murine leishmaniasis (Murray, H. W., J. D. Berman, and S. D. Wright. 1988. Immunochemotherapy for intracellular Leishmania donovani infection: gamma interferon plus pentavalent antimony. J Infect Dis 157:973). Tumor volume was measured during the study period and calculated using the formula for a prolate spheroid (V=4/3×a2b) (Lindner, D. J., E. C. Borden, and D. V. Kalvakolanu. 1997. Synergistic antitumor effects of a combination of interferons and retinoic acid on human tumor cells in vitro and in vivo. Clin Cancer Res 3:931). Student's t test was used for assessing the significance of tumor volume differences among differential treatment groups. Mouse viability (daily) and body weights (weekly) were also recorded during the study period. At the end of the study, Renca tumors and major internal organs (heart, kidney, liver, lung and spleen) were harvested for histology and immunohistochemistry analysis.

[5] = sodium stibogluconate 400 μg/ml, GM-CSF 25 ng/ml, ATRA

T2 sequence (P18031 whole entry, species assumed): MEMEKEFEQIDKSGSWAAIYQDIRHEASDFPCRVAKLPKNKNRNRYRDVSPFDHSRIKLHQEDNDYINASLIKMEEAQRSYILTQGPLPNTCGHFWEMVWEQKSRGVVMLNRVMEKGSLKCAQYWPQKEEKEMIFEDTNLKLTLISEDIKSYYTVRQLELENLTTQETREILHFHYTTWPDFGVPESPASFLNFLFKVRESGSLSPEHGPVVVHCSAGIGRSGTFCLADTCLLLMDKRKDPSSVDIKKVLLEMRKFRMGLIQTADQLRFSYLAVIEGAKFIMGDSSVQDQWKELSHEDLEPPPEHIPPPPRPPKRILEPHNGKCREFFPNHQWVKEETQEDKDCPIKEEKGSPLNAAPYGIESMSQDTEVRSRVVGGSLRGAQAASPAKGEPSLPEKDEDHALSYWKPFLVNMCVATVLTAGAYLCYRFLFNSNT
T1 sequence (P29351 whole entry): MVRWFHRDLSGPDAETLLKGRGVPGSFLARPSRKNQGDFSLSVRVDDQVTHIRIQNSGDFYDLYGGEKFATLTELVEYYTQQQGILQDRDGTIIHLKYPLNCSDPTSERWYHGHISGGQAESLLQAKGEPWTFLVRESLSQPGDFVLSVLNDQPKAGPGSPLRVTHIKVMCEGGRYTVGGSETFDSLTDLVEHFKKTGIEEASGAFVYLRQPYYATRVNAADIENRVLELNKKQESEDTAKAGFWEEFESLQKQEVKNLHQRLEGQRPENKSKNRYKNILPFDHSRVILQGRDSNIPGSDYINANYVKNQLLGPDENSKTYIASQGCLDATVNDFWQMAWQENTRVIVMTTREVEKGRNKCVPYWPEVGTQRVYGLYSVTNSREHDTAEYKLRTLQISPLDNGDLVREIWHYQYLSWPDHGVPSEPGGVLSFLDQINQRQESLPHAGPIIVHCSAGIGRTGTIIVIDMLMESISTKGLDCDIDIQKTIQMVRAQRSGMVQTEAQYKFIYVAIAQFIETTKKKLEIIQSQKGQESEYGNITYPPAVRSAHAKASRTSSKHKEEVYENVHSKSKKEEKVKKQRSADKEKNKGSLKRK

CC1=C(/C=C/C(C)=C/C=C/C(C)=C/C(=O)O)C(C)(C)CCC1 [ATRA, All-trans-retinoic acid]
cell cycle of NB4 cells (NB4 cells [1]): arrested at GI phase | NBT-positive (differentiated) HL-60 cells (HL-60 cells; [5]): 90% | NB4 differentiation by short exposure versus long term exposure (NB4 cells [2]; ATRA): modest | NBT-positive (differentiated) U937 cells (U937 cells; [5]): 72% and 73%

O.O.O.O=C([O-])[C@H]([O-])[C@@H]([O-])C(=O)[O-].O=C([O-])[C@H]([O-])[C@@H]([O-])C(=O)[O-].[K+].[K+].[Sb+3].[Sb+3] [potassium antimonyl tartrate]
inhibition of SHP-1 (SHP-1): no detectable inhibition | IL-3-induced Stat5 phosphorylation [3]: failed to enhance IL-3-induced Stat5 phosphorylation | inhibition of PTP1B (PTP1B): no detectable inhibition | IL-3-induced proliferation of Baf3 cells (Baf3 cells): failed to enhance | toxicity against Baf3 cells (Baf3 cells): marked toxicity

GM-CSF: recombinant human granulocyte/macrophage colony stimulating factor
maximal increase of NBT-positive HL-60 cells (HL-60 cells; GM-CSF alone 25 ng/ml): 8-10% | effect on NB-4 cell differentiation (NB4 cells [2]; GM-CSF alone): no detectable effect | maximal increase of NBT-positive U937 cells (U937 cells; GM-CSF alone 25 ng/ml): 8-10%

IL-2: recombinant IL-2 (Proleukin, Chiron)
increase of tumor-infiltrating Mφ (F4/80+) [4]: comparable levels | Renca tumor growth inhibition (Renca tumors): little effects; also recorded: failed to inhibit Renca tumor growth
